Assay results reported in patent US10201558B2, “Compositions of selenoorganic compounds and methods of use thereof” (Alltech, Inc., priority 2014, dated 2019).
“Also recorded” adds a separate entry of the source.

Assays:
BACE1 = experiment: Western blot of BACE1 in APP/PS1 mouse brains; assay type: in vivo; details: APP/PS1 mice, Compound C diet vs control diet
Method: Male APPΔNLh/ΔNLh×PS1P246 L/246 L knock-in model mice of Alzheimer's disease (abbreviated APP/PS1) were genotyped using standard primers for human APP (Amyloid Precursor Protein) and human PS1 (PSEN1). These APP/PS1 mice starting at the age of 6 months, were fed either a control diet containing normal levels of selenium (0.3 ppm from plant and inorganic selenium salt sources) or an experimental diet containing Compound C (the control diet to which was added 1 ppm Se from Compound C) for 6 months. […]
(§1) Frozen hemispheres of control- and Compound C-treated APP/PS1 mice were weighed and homogenized in PBS buffer, and then subsequently extracted with RIPA buffer (Sigma) containing complete proteinase and phosphatase inhibitors (Fisher Scientific). Protein levels in the samples were determined by micro-BCA protein analysis according to the manufacturer's protocol. […] Positive signals on the membrane blots were detected using Amersham's enhanced chemiluminescence Western Blotting Prime Detection reagents (GE healthcare Lifescience, Pittsburgh, Pa.). Images of these luminescence signals on the membrane blots were captured using the LI-COR Odyssey Fc Image system (Lincoln, Nebr.). Protein band densities in Western blots were determined using NIH Image J software, and then normalized by Actb levels in each samples to obtain the protein levels.

PPARG = experiment: Western blot of PPARG protein in IMR-32 cells; assay type: cell-based, human; details: 150 ppb, 6 hours
Method: IMR-32 cells were seeded on 6-well plates and then treated with control and various compounds for 6 hours and 24 hours, as described above. After treatments, cells were rinsed with ice-cold PBS and lysed in ice-cold RIPA buffer containing complete proteinase and phosphatase inhibitors (Thermo-Fisher Scientific, Waltham, Mass.) on ice for 30 min Cell lysates were collected using a cell scraper and transfer pipette and then centrifuged at 12000×g for 30 min at 4° C. to remove the DNA pellet and obtain the protein extract. Protein levels in the supernatant of these cell lysates were determined using the Pierce Micro-BCA protein assay kit (Thermo Scientific-Piece Biotechnology, Rockford, Ill.) according to the manufacturer's protocol […]
Positive signals on the membrane blots were detected using Amersham's enhanced chemiluminescence (ECL) Western Blotting Prime Detection reagents (GE healthcare Lifescience, Pittsburgh, Pa.). Images of these luminescence signals on the membrane blots were captured using the LI-COR Odyssey Fc Image system (Lincoln, Nebr.). […] Protein band densities in the Western blots were determined using the Li—COR Image studio software or NIH ImageJ software, and then normalized by ACTB protein level in each sample. […]

[1] = tested on: phosphorylated Foxo4 (threonine 28); experiment: Western blot of phosphorylated Foxo4 in APP/PS1 mouse brains; assay type: in vivo; details: APP/PS1 mouse brain, Compound C diet vs control diet
Method: Male APPΔNLh/ΔNLh×PS1P246 L/246 L knock-in model mice of Alzheimer's disease (abbreviated APP/PS1) were genotyped using standard primers for human APP (Amyloid Precursor Protein) and human PS1 (PSEN1).
At 12 months of age, the mice were euthanized and the brains quickly removed, the cerebellum isolated and the hemispheres snap-frozen in liquid nitrogen and then stored at −80° C. for further immunohistochemistry (IHC), protein and RNA analysis. All procedures conducted on these animal studies were pre-approved by the University of Kentucky IACUC committee.
as §1, with “Protein band densities in Western blots were determined using NIH Image J software, and then normalized by Actb levels in each samples to obtain the protein levels.” left out

C[Se]C[C@H]1O[C@@H](n2cnc3c(N)ncnc32)C(O)C1O (stereo in doubt) [Compound C, 5′-deoxy-5′-methylselenoadenosine]
BACE-1 protein levels in the brains (BACE1): reduced; also recorded: decreased
PPARG protein expression (PPARG): markedly attenuated
phosphorylated Foxo4 at threonine 28 (pFoxo4) protein [1]: inhibition; also recorded: less abundant; also recorded: significantly decreased
